According to ChEMBL document CHEMBL1201862, “PubChem BioAssay data set” (2004):
Activity calls are given as the source filed them.

Legend:
Genome polyprotein = Genome polyprotein (dengue virus type 2, UniProt P29990); experiment: flavivirus cap methylation enzyme inhibition – biochemical, confirmation dose response, primary screen (AID 588689); assay type: functional
[1] = molecular target: T1, Microphthalmia-associated transcription factor (Homo sapiens, UniProt O75030); experiment: reducers of TRPM1 reporter luminescence, concentration series – cell-based, SK-MEL-5, cherry-picked, set 3, MITF inhibitor project, dose response (AID 493073); assay type: functional;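 further: SK-MEL-5 melanoma cells with luciferase driven by the MITF target TRPM1 promoter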
T1 sequence (O75030 whole entry): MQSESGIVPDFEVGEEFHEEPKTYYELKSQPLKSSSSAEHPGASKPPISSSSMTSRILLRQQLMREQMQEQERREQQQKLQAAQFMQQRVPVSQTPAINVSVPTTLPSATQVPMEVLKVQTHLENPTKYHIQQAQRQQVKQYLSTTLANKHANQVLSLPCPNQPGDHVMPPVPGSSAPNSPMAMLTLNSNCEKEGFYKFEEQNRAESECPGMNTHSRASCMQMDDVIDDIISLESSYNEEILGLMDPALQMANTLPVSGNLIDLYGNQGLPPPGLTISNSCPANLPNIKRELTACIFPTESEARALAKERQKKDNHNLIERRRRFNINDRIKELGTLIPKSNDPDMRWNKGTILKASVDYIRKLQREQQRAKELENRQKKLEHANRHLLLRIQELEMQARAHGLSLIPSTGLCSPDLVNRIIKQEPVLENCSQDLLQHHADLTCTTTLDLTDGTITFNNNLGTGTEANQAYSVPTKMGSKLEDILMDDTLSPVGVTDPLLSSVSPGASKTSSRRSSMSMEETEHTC

[2] = mRNA 3' processing disruption, beta-gal signal increase – luminescence, S. cerevisiae SKY197-pL101, dose response (AID 2525); assay type: functional, cell-based
[3] = Luminescence Cell-Based Dose Confirmation HTS to Identify Inhibitors of Polyadenylation.; assay type: functional
[4] = molecular target: Heat shock protein HSP 90-alpha (Homo sapiens, UniProt P07900); assay type: functional, organism-based
[5] = Trypanosoma cruzi growth suppression in host cells – NIH3T3 host cells, beta-gal luminescence, confirmation (AID 2044); assay type: functional, cell-based;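 further: intracellular parasites grown in NIH/3T3 mouse fibroblasts as host cells; luminescent beta-galactosidase reporter signal from transgenic T. cruzi replicating inside host cells; inhibitors lower the luminescence signal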
[6] = NIH3T3 cell viability loss – ATP luminescence, mouse fibroblasts, counter-screen, dose response (AID 2010); assay type: functional, cell-based;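 further: cells exposed to compound for about 90 hours before reading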
H4 = experiment: Luminescence Cell-Based Dose Response HTS to Identify Activators of 5'UTR Stem-Loop Driven Prion Protein mRNA Translation in H4 Neuroglioblastoma Cells. [Related pubchem assays: 1829 (Project Summary), 1814 (Primary HTS)]; assay type: functional; settings: Homo sapiens
[7] = Luminescence Cell-Based Dose Response HTS to Identify Activators of Luciferase Translation or Activity in H4 […] Cells. [Related pubchem assays: 1829 (Project Summary), 1814 (Primary HTS)]; assay type: functional
CAAX prenyl protease 2 = CAAX prenyl protease 2 (Saccharomyces cerevisiae S288c, UniProt Q03530); assay type: biochemical
CAAX prenyl protease 2, sequence (Q03530 whole entry): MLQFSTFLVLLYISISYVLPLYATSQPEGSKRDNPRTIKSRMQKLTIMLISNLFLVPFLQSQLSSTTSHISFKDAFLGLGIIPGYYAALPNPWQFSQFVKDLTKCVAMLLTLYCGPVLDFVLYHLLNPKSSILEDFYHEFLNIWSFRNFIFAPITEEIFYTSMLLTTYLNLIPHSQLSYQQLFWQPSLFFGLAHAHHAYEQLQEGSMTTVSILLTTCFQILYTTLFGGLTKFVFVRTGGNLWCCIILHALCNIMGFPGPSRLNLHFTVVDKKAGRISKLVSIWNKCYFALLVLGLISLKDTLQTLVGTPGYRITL

[8] = Luminescence Cell-Based Dose Confirmation HTS to Identify Activators of 5'UTR Stem-Loop Driven Alpha-Synuclein mRNA Translation in H4 Neuroglioblastoma Cells. [Related pubchem assays: 1829 (Project Summary), 1814 (Primary HTS)]; assay type: functional
[9] = Luminescence Cell-Based Dose Retest to Confirm Inhibitors of Cancer Stem Cells. [Related pubchem assays (depositor defined):AID2717, AID2721]; assay type: functional; settings: Homo sapiens
[10] = molecular target: Intestinal-type alkaline phosphatase (Homo sapiens, UniProt P09923); experiment: Dose Response confirmation of uHTS hits from a small molecule inhibitors of human intestinal alkaline phosphatase via a luminescent assay. [Related pubchem assays (depositor defined):AID2544, AID2574]; assay type: functional
Intestinal-type alkaline phosphatase, sequence (P09923 whole entry): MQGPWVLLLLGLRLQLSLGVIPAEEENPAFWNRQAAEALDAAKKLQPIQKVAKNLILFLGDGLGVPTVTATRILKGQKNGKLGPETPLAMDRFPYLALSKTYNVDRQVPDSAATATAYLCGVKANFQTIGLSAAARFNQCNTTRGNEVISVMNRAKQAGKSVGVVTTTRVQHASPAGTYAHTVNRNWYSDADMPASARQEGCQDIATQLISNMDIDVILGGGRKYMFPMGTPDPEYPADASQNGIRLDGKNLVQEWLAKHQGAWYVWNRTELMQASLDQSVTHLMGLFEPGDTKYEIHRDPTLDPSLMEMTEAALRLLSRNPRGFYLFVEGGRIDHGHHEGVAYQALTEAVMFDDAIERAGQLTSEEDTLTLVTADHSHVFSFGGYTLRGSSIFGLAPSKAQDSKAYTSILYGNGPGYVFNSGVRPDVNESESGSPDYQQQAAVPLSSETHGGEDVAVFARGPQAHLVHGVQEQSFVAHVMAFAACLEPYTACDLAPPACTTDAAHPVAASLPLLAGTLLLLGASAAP

[11] = molecular target: T2, Dual specificity protein phosphatase 6 (Rattus norvegicus, UniProt Q64346)
T2 sequence (Q64346 whole entry): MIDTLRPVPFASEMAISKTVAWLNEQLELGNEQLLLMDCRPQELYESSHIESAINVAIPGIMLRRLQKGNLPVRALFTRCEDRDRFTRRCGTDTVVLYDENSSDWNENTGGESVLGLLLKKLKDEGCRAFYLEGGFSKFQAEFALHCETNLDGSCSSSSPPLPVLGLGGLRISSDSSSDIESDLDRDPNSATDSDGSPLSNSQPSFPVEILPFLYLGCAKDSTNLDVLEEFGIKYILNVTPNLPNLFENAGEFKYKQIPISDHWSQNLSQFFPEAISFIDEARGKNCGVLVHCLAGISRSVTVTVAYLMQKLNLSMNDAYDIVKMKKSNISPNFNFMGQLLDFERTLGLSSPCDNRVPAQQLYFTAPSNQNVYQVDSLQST

[12] = molecular target: T2, Dual specificity protein phosphatase 6; assay type: functional
[13] = molecular target: Glyceraldehyde-3-phosphate dehydrogenase (Homo sapiens, UniProt P04406)
Glyceraldehyde-3-phosphate dehydrogenase, sequence (P04406 whole entry): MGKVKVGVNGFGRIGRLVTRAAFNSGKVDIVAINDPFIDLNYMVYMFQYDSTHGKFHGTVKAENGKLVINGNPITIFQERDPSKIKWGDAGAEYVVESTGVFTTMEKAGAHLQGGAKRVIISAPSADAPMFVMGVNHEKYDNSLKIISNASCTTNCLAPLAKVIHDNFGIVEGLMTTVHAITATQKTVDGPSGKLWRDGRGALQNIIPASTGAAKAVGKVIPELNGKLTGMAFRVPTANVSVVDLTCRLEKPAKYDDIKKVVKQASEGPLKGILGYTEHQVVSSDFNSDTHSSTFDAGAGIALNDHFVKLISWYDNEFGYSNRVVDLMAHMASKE

[14] = molecular target: T3, Tyrosine-protein phosphatase non-receptor type 7 (Homo sapiens, UniProt P35236); assay type: functional
T3 sequence (P35236 whole entry): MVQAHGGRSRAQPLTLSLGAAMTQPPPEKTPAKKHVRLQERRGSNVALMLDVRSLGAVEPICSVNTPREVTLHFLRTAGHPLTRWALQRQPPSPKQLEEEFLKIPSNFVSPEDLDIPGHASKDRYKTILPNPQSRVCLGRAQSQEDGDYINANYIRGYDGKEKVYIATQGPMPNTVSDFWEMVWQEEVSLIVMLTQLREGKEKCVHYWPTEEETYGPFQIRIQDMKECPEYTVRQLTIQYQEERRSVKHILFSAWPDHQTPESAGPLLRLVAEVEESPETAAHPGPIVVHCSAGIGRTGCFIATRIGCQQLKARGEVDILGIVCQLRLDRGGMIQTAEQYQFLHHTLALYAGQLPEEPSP

[15] = A549 cell cytotoxicity, dose response, cytotoxicity control, plate reader, cherry-pick, antagonist series (AID 743412); assay type: functional, cell-based
[16] = blockers of bursicon-stimulated LGR2 cAMP reporter – cell-based, HEK293, CRE-luciferase reporter, cherry pick, set 2, dose response (AID 743343); assay type: functional;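 further: transfected cells were stimulated with diluted bursicon conditioned medium after compound addition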
[17] = toxicity toward HepG2 liver cells – cell-based, plate reader, cherry-pick, antagonist series, cytotoxicity control, dose response (AID 743416); assay type: functional
[18] = viability loss in HEK293 cells – cell-based, plate reader, cherry-picked samples, cytotoxicity control, dose response (AID 743446); assay type: functional
[19] = molecular target: Neurotensin receptor type 1 (Homo sapiens, UniProt P30989); assay type: functional;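 further: Image-based confirmatory dose-response assay measuring agonist activity at NTR1; NTR1-expressing U2OS osteosarcoma cells imaged for beta-arrestin GFP spot formation; agonist potency where compounds increase beta-arrestin recruitment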
Neurotensin receptor type 1, sequence (P30989 whole entry): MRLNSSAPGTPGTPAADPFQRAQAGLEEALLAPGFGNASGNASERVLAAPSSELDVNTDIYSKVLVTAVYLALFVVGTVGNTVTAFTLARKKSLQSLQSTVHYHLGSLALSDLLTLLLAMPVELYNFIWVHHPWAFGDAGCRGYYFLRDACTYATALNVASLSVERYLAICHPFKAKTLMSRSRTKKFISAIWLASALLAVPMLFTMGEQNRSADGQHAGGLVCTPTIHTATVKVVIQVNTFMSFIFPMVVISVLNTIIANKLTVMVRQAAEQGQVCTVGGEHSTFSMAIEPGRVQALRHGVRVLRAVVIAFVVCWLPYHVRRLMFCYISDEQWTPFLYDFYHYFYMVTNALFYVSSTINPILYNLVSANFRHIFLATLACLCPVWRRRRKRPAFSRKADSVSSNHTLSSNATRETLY

[20] = molecular target: Melanin-concentrating hormone receptor 1 (Homo sapiens, UniProt Q99705); experiment: Fluorescence-based counterscreen for antagonists of the G-protein coupled receptor 7 (GPR7): cell-based high throughput dose response assay to identify antagonists of the melanin-concentrating hormone receptor 1 (MCHR1).; assay type: functional
Melanin-concentrating hormone receptor 1, sequence (Q99705 whole entry): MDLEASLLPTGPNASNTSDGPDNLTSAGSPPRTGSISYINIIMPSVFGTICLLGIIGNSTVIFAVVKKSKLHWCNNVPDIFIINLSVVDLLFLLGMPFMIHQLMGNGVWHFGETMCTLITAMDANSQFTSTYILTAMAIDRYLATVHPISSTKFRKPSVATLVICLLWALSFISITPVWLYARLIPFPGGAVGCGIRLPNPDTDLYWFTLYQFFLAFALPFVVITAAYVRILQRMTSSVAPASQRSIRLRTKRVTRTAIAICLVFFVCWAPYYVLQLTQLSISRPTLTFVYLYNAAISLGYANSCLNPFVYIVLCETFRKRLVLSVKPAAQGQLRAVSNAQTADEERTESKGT

Genome polyprotein, sequence (P29990 2492-3391 limits assumed): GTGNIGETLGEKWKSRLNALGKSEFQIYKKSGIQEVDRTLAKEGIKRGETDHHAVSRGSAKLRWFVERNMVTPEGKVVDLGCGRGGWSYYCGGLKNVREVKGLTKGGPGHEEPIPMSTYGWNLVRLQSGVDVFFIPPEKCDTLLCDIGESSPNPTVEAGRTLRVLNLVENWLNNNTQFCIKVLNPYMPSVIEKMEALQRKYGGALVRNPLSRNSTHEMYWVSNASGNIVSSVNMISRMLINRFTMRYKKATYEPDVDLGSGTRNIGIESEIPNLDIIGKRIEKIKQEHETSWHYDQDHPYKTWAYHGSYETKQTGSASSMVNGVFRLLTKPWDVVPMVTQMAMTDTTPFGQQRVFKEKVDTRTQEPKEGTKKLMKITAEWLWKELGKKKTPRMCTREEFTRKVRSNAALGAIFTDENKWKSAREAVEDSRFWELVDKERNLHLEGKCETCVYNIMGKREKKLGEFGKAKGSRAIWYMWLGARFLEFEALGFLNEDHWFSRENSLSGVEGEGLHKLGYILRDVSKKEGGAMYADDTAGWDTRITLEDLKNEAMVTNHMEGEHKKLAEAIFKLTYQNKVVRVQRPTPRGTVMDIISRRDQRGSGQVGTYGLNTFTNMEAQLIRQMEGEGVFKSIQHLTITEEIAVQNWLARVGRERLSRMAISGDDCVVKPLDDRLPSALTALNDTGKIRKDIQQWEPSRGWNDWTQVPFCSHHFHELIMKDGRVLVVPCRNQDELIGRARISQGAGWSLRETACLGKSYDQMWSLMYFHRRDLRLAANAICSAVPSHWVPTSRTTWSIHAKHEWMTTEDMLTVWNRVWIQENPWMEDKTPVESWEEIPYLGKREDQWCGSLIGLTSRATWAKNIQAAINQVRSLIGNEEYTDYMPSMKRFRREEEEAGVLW

## Cc1ccc(C(=O)c2no[n+]([O-])c2C(=O)c2ccc(C)cc2)cc1
Genome polyprotein
  IC50: > 100 µM (active)
[1]
  AC50: 16.7 µM (active)
[2]
  EC50: 3.01 µM (active)
[3]
  EC50: 2.92 µM (active)
[4]
  AC50: 2.37 µM (active)

## Cc1ccc2c(c1)sc[n+]2Cc1ccccc1
[5]
  EC50: 1.87 µM (active)
[6]
  EC50: > 60 µM (not active)
H4
  EC50: 68.9 µM (inconclusive)
[7]
  EC50: 46.1 µM (active)
CAAX prenyl protease 2
  AC50: 18.6 µM (active)
[8]
  EC50: 11.9 µM (active)

## Cc1ccc(NCc2ccc([N+](=O)[O-])s2)cc1
[9]
  AC50: > 195 µM (inactive)
[10]
  IC50: > 100 µM (inactive)

## CCOC(=O)C1Nc2c(O)cccc2C2C=CCC12 (stereo not drawn)
[11]
  IC50: > 100 µM (inactive)
[12]
  IC50: > 100 µM (inactive)
[13]
  IC50: > 100 µM (not active)
[14]
  IC50: > 100 µM (not active)

## O=C(Nc1ccc(N2CCN(C(=O)c3ccccc3)CC2)cc1)c1cc2ccccc2o1
[15]
  AC50: 45.5 µM (active)
[16]
  AC50: 5.93 µM (active)
[17]
  AC50: 5.12 µM (active)
[18]
  AC50: 16.8 µM (active)
[19]
  EC50: 24.4 µM (inactive)

## Cc1ccccc1CC1(CO)CCCN(C(=O)c2cc(Cl)ccc2F)C1 (stereo not drawn)
[20]
  IC50: > 14.6 µM (not active)
